Columns and labels:
Format in all cases: cell-based
Set-up in all cases: unit not given here
A. baumannii 4010 = test: MIC by CLSI agar/broth dilution, Test Example 1; details: Table 2; strain produces OXA-51
Description: (§1) The MIC (minimum inhibitory concentration) was determined by the CLSI (Clinical and Laboratory Standards Institute) methods. The agar dilution method for determining antimicrobial susceptibility was carried out using Mueller Hinton-II agar and the amount of inoculation was 10^4 CFU/spot. Broth dilution tests were performed using Mueller Hinton-II broth. All assays were run with the indicated control strains, available from the ATCC (American Type Culture Collection, Rockville, Md.).

A. baumannii KABA 01-33 = test: MIC by CLSI agar/broth dilution, Test Example 1; details: Table 2; strain produces OXA-2, VIM-2
Description: as §1

E. coli ATCC10536 = test: MIC by CLSI agar/broth dilution, Test Example 1; details: Table 2
Description: as §1

K. pneumoniae ATCC10031 = test: MIC by CLSI agar/broth dilution, Test Example 1; details: Table 2
Description: as §1

P. aeruginosa ATCC27853 = test: MIC by CLSI agar/broth dilution, Test Example 1; details: Table 2
Description: as §1

A. baumannii FSAb-029 = test: Antimicrobial Susceptibility Test (CLSI), Test Example 2; details: Table 4; strain produces OXA-2, IMP-1
Description: (§2) Antimicrobial Susceptibility Test was performed by the CLSI (Clinical and Laboratory Standards Institute) methods. The agar dilution method for determining antimicrobial susceptibility was carried out using Mueller Hinton-II agar and the amount of inoculation was 10^4CFU/spot. Broth dilution tests were performed using the Mueller Hinton-II broth. All assays were run with the indicated control strains, available from the ATCC (American Type Culture Collection, Rockville, Md.).

A. baumannii FSAb-039 = test: as above; details: Table 4; strain produces OXA-51
Description: as §2

A. baumannii FSAb-056 = test: as above; details: Table 4; strain produces OXA-23, OXA-51
Description: as §2

A. baumannii FSAb-065 = test: as above; details: Table 4; strain produces OXA-2, VIM-2
Description: as §2

E. coli FSEco-054 = test: as above; details: Table 4; strain produces ESBL
Description: as §2

[1] = tested on: K. pneumoniae ATCC BAA-1904; test: as above; details: Table 4; strain produces KPC-3
Description: as §2

P. aeruginosa FSPa-121 = test: as above; details: Table 4; strain produces OXA-17
Description: as §2

| SMILES | MIC (minimum inhibitory concentration), A. baumannii 4010 (A. baumannii 4010) | MIC (minimum inhibitory concentration), A. baumannii KABA 01-33 (A. baumannii KABA 01-33) | MIC (minimum inhibitory concentration), E. coil ATCC10536 (E. coli ATCC10536) | MIC (minimum inhibitory concentration), K. pneumoniae ATCC10031 (K. pneumoniae ATCC10031) | MIC (minimum inhibitory concentration), P. aeruginosa ATCC27853 (P. aeruginosa ATCC27853) | antimicrobial susceptibility, A. baumannii FSAb-029 (A. baumannii FSAb-029) | antimicrobial susceptibility, A. baumannii FSAb-039 (A. baumannii FSAb-039) | antimicrobial susceptibility, A. baumannii FSAb-056 (A. baumannii FSAb-056) | antimicrobial susceptibility, A. baumannii FSAb-065 (A. baumannii FSAb-065) | antimicrobial susceptibility, E. coil FSEco-054 (E. coli FSEco-054) | antimicrobial susceptibility, K. pneumoniae BAA-1904 [1] | antimicrobial susceptibility, P. aeruginosa FSPa-121 (P. aeruginosa FSPa-121) |
| --- | --- | --- | --- | --- | --- | --- | --- | --- | --- | --- | --- | --- |
| C[C@@H](O)[C@H]1C(=O)N2C(C(=O)O)=C(CN(C)CCNC(=O)c3ccc(O)c(O)c3Cl)[C@H](C)[C@H]12 [Compound 1] | 2 | 1 | 0.5 | 0.063 | 4 | 1 | 2 | 2 | 1 | 1 | 8 | 2 |
| C[C@@H](O)[C@H]1C(=O)N2C(C(=O)O)=C(CN(C)CCNC(=O)c3cc(O)c(O)cc3Cl)[C@H](C)[C@H]12 [Compound 5] | 8 | 2 | 1 | 0.13 | 16 | 8 | 8 | 8 | 8 | 4 | 32 | 8 |
| C[C@@H](O)[C@H]1C(=O)N2C(C(=O)O)=C(CN(C)CCNC(=O)c3cc(O)c(O)c(Cl)c3)[C@H](C)[C@H]12 [Compound 6] | 4 | 1 | 0.5 | 0.063 | 8 | 2 | 4 | 2 | 2 | 1 | 32 | 2 |
| C[C@@H](O)[C@H]1C(=O)N2C(C(=O)O)=C(CN(C)CC(=O)NCCNC(=O)c3ccc(O)c(O)c3Cl)[C@H](C)[C@H]12 [Compound 19] | 4 | 1 | 0.5 | 0.063 | 4 | 8 | 8 | 8 | 8 | 8 | 8 | 4 |
| C[C@@H](O)[C@H]1C(=O)N2C(C(=O)O)=C(CN(C)CC(=O)NCc3cc(=O)c(O)cn3O)[C@H](C)[C@H]12 [Compound 26] | 8 | 2 | 0.5 | 0.13 | 8 | 16 | 16 | 4 | 4 | 4 | 32 | 4 |
